Test results from US20210330756A1, “Acetylation of Miro1” (University of South Carolina, priority 2020, published 2021).

System: Miro1-AcK105
Assay: Miro1-AcK105 levels in DRG cultures by immunoblotting and immunofluorescence
Format: cell-based, rat
Source text: The three reported acetylation sites for Miro1 in human cell lines K92, K512, and K618 (Choudhary et al., 2009; Lundby et al., 2012) correspond to K105, K525, and K629 in rat Miro1 (FIG. 6 at D). We generated Lys-to-Ala mutants for K105, K525, and K629 to determine if these Miro1 residues are acetylated in neurons (Myc-Miro1K105A , Myc-Miro1K525A , and […]; FIG. 6 at D). […] To more definitively assess acetylation of K105, we used acetylated Miro1 peptides to generate an anti-Miro1-AcK105 antibody.
For immunoblotting, protein lysates or immunoprecipitates were denatured by boiling in Laemmli sample buffer, fractionated by SDS-PAGE, and transferred to nitrocellulose membranes. Blots were blocked for 1 h at room temperature with 5% nonfat dry milk in TBS with 0.1% Tween 20 (TBST). Primary antibodies diluted in 5% BSA in TBST were added to the membranes and incubated overnight at 4° C. with rocking. Primary antibodies consisted of rabbit anti-Myc (1:2,000; Cell Signaling; 71D10), rabbit anti-RHOT1 antibody (1:1,000; Aviva Systems Biology; ARP44817 P050), rabbit anti-HDAC6 antibody (1:2,000; Cell Signaling; 7558), rabbit anti-ERK1 (1:5,000; Abcam; ab32537), and affinity-purified custom rabbit anti-Miro1-AcK105 (1:2,500; Twiss laboratory, see above) antibodies. For the anti-Miro1-AcK105 antibody, preimmune and test-bleed sera were used at 1:1,000 dilutions to initially evaluate for specificity. After washing in TBST, blots were incubated with HRP-conjugated anti-rabbit IgG antibodies (1:5,000; Jackson Immunoresearch) diluted in blocking buffer for 1 h at room temperature. Signals were detected using ECL Prime (GE Healthcare) after extensive washing.
Standard immunofluorescence methods were used as previously described (Merianda et al., 2009) at room temperature unless specified otherwise. Briefly, coverslips were rinsed in PBS, fixed in buffered 3.7% PFA for 15-20 min, and washed twice in PBS. Cultures were permeabilized with PBS plus 0.3% Triton X-100 (PBST; Sigma-Aldrich) for 5 min. Coverslips were blocked in 2% BSA and 2% FBS (Gemini) for 1 h. […]

## CN1CCc2c(c3ccccc3n2Cc2ccc(C(=O)NO)cc2)C1 [TubA, tubastatin]
DRG lysates ± 10 μM TubA
  anti-Miro1-AcK105 immunoblot signal: clear increase in signal

## C/C=C(/C)C(=O)O[C@H]1C(C)=C2[C@H]([C@@H]1OC(=O)CCCCCCC)[C@@](C)(OC(C)=O)C[C@H](OC(=O)CCC)[C@@]1(O)[C@H]2OC(=O)[C@@]1(C)O [thapsigargin]
10 μg/ml aggrecan or 1 μM thapsigargin, 4 h
  Miro1-AcK105 overall by immunoblotting: decreased Miro1-AcK105
aggrecan- or thapsigargin-treated cultures
  Miro1-AcK105 in axons by immunofluorescence: decreased Miro1-AcK105
